Laboratory results published in ChEMBL document CHEMBL3045862, “PRE-CLINICAL AND CLINICAL PHARMACOKINETICS OF THE DIASTEREOMERS OF ARTEETHER, A POTENT ANTIMALARIAL” (Med Chem Res, 2004).

Tests used:
Rattus norvegicus [1] = assay: AUC (0 to infinity) in Rattus norvegicus Sprague-Dawley (rat) at 30 mg/kg, administered intramuscularly; format: ADME, organism-based, Plasma; set-up: time infinity, dose 30 mg/kg, route intramuscular; details: in vivo, im
[2] = Volume of distribution in Rattus norvegicus Sprague-Dawley (rat) at 2 mg/kg, iv; format: ADME, organism-based; set-up: dose 2 mg/kg, route intravenous; details: in vivo
[3] = Elimination half life in Rattus norvegicus Sprague-Dawley (rat) at 9 mg/kg, administered intramuscularly; format: ADME, organism-based; set-up: dose 9 mg/kg, route intramuscular; details: in vivo, im, read-out: beta t1/2 (converted)
[4] = Tmax in Rattus norvegicus Sprague-Dawley (rat) at 17.5 mg/kg, administered intramuscularly; format: ADME, organism-based; set-up: dose 17.5 mg/kg, route intramuscular; details: in vivo, im
[5] = Mean residence time in Macaca mulatta (Rhesus monkey) at 4 mg/kg, iv; format: ADME, organism-based; set-up: dose 4 mg/kg, route intravenous; details: in vivo
[6] = Mean residence time in Rattus norvegicus Sprague-Dawley (rat) at 9 mg/kg, po; format: ADME, organism-based; set-up: dose 9 mg/kg, route oral; details: in vivo
Rattus norvegicus [7] = assay: Clearance in Rattus norvegicus Sprague-Dawley (rat) at 9 mg/kg, po; format: ADME, organism-based; set-up: dose 9 mg/kg, route oral; details: in vivo
Rhesus monkey [8] = assay: Clearance in Macaca mulatta (Rhesus monkey) at 7.5 mg/kg, administered intramuscularly; format: ADME, organism-based; set-up: dose 7.5 mg/kg, route intramuscular; details: in vivo, im
[9] = Elimination half life in Macaca mulatta (Rhesus monkey) at 4 mg/kg, iv; format: ADME, organism-based; set-up: dose 4 mg/kg, route intravenous; details: in vivo, read-out: beta t1/2 (converted)
[10] = Cmax in Rattus norvegicus Sprague-Dawley (rat) at 9 mg/kg, administered intramuscularly; format: ADME, organism-based; set-up: dose 9 mg/kg, route intramuscular; details: in vivo, im
[11] = Cmax in Rattus norvegicus Sprague-Dawley (rat) at 17.5 mg/kg, administered intramuscularly; format: ADME, organism-based; set-up: dose 17.5 mg/kg, route intramuscular; details: in vivo, im
Rattus norvegicus [12] = assay: AUC (0 to infinity) in Rattus norvegicus Sprague-Dawley (rat) at 17.5 mg/kg, administered intramuscularly; format: ADME, organism-based, Plasma; set-up: dose 17.5 mg/kg, route intramuscular, time infinity; details: in vivo, im
[13] = Tmax in Rattus norvegicus Sprague-Dawley (rat) at 30 mg/kg, po; format: ADME, organism-based; set-up: dose 30 mg/kg, route oral; details: in vivo
Rattus norvegicus [14] = assay: AUC (0 to infinity) in Rattus norvegicus Sprague-Dawley (rat) at 9 mg/kg, po; format: ADME, organism-based, Plasma; set-up: time infinity, dose 9 mg/kg, route oral; details: in vivo
Rhesus monkey [15] = assay: Dose normalized AUC in Macaca mulatta (Rhesus monkey) at 4 mg/kg, iv; format: ADME, organism-based; set-up: dose 4 mg/kg, route intravenous; details: in vivo
Rattus norvegicus [16] = assay: Volume of distribution in Rattus norvegicus Sprague-Dawley (rat) at 17.5 mg/kg, po; format: ADME, organism-based; set-up: dose 17.5 mg/kg, route oral; details: in vivo
[17] = Mean residence time in Rattus norvegicus Sprague-Dawley (rat) at 30 mg/kg, po; format: ADME, organism-based; set-up: dose 30 mg/kg, route oral; details: in vivo
Rhesus monkey [18] = assay: Clearance in Macaca mulatta (Rhesus monkey) at 4 mg/kg, iv; format: ADME, organism-based; set-up: dose 4 mg/kg, route intravenous; details: in vivo
Rattus norvegicus [19] = assay: Dose normalized AUC in Rattus norvegicus Sprague-Dawley (rat) at 17.5 mg/kg, administered intramuscularly; format: ADME, organism-based; set-up: dose 17.5 mg/kg, route intramuscular; details: in vivo, im
[20] = Elimination half life in Rattus norvegicus Sprague-Dawley (rat) at 30 mg/kg, administered intramuscularly; format: ADME, organism-based; set-up: dose 30 mg/kg, route intramuscular; details: in vivo, im, read-out: beta t1/2 (converted)
Rattus norvegicus [21] = assay: AUC (0 to infinity) in Rattus norvegicus Sprague-Dawley (rat) at 17.5 mg/kg, po; format: ADME, organism-based, Plasma; set-up: time infinity, dose 17.5 mg/kg, route oral; details: in vivo
[22] = Volume of distribution in Homo sapiens (human) at 150 mg; format: ADME, organism-based; details: in vivo
Rattus norvegicus [23] = assay: Volume of distribution in Rattus norvegicus Sprague-Dawley (rat) at 30 mg/kg, po; format: ADME, organism-based; set-up: dose 30 mg/kg, route oral; details: in vivo
[24] = Cmax in Homo sapiens (human) at 150 mg; format: ADME, organism-based; set-up: dose 150 mg; details: in vivo
[25] = Elimination half life in Rattus norvegicus Sprague-Dawley (rat) at 17.5 mg/kg, po; format: ADME, organism-based; set-up: dose 17.5 mg/kg, route oral; details: in vivo, read-out: beta t1/2 (converted)
[26] = Volume of distribution in Macaca mulatta (Rhesus monkey) at 4 mg/kg, iv; format: ADME, organism-based; set-up: dose 4 mg/kg, route intravenous; details: in vivo
Rattus norvegicus [27] = assay: Volume of distribution in Rattus norvegicus Sprague-Dawley (rat) at 9 mg/kg, administered intramuscularly; format: ADME, organism-based; set-up: dose 9 mg/kg, route intramuscular; details: in vivo, im
[28] = Mean residence time in Rattus norvegicus Sprague-Dawley (rat) at 30 mg/kg, administered intramuscularly; format: ADME, organism-based; set-up: dose 30 mg/kg, route intramuscular; details: in vivo, im
[29] = Cmax in Rattus norvegicus Sprague-Dawley (rat) at 17.5 mg/kg, po; format: ADME, organism-based; set-up: dose 17.5 mg/kg, route oral; details: in vivo
[30] = Tmax in Rattus norvegicus Sprague-Dawley (rat) at 9 mg/kg, po; format: ADME, organism-based; set-up: dose 9 mg/kg, route oral; details: in vivo
[31] = Tmax in Macaca mulatta (Rhesus monkey) at 50 mg/kg, po; format: ADME, organism-based; set-up: dose 50 mg/kg, route oral; details: in vivo
Rattus norvegicus [32] = assay: Clearance in Rattus norvegicus Sprague-Dawley (rat) at 17.5 mg/kg, administered intramuscularly; format: ADME, organism-based; set-up: dose 17.5 mg/kg, route intramuscular; details: in vivo, im
[33] = Elimination half life in Rattus norvegicus Sprague-Dawley (rat) at 2 mg/kg, iv; format: ADME, organism-based; set-up: dose 2 mg/kg, route intravenous; details: in vivo, read-out: beta t1/2 (converted)
Rattus norvegicus [34] = assay: Dose normalized AUC in Rattus norvegicus Sprague-Dawley (rat) at 17.5 mg/kg, po; format: ADME, organism-based; set-up: dose 17.5 mg/kg, route oral; details: in vivo
[35] = Cmax in Rattus norvegicus Sprague-Dawley (rat) at 30 mg/kg, po; format: ADME, organism-based; set-up: dose 30 mg/kg, route oral; details: in vivo
Rattus norvegicus [36] = assay: Volume of distribution in Rattus norvegicus Sprague-Dawley (rat) at 17.5 mg/kg, administered intramuscularly; format: ADME, organism-based; set-up: dose 17.5 mg/kg, route intramuscular; details: in vivo, im
Rattus norvegicus [37] = assay: Volume of distribution in Rattus norvegicus Sprague-Dawley (rat) at 30 mg/kg, administered intramuscularly; format: ADME, organism-based; set-up: dose 30 mg/kg, route intramuscular; details: in vivo, im
Rattus norvegicus [38] = assay: Clearance in Rattus norvegicus Sprague-Dawley (rat) at 17.5 mg/kg, po; format: ADME, organism-based; set-up: dose 17.5 mg/kg, route oral; details: in vivo
[39] = Cmax in Rattus norvegicus Sprague-Dawley (rat) at 30 mg/kg, administered intramuscularly; format: ADME, organism-based; set-up: dose 30 mg/kg, route intramuscular; details: in vivo, im
Rattus norvegicus [40] = assay: Clearance in Rattus norvegicus Sprague-Dawley (rat) at 9 mg/kg, administered intramuscularly; format: ADME, organism-based; set-up: dose 9 mg/kg, route intramuscular; details: in vivo, im
Rattus norvegicus [41] = assay: AUC (0 to infinity) in Rattus norvegicus Sprague-Dawley (rat) at 9 mg/kg, administered intramuscularly; format: ADME, organism-based, Plasma; set-up: time infinity, dose 9 mg/kg, route intramuscular; details: in vivo, im
Rattus norvegicus [42] = assay: Dose normalized AUC in Rattus norvegicus Sprague-Dawley (rat) at 30 mg/kg, po; format: ADME, organism-based; set-up: dose 30 mg/kg, route oral; details: in vivo

CCO[C@@H]1O[C@@H]2O[C@]3(C)CC[C@H]4[C@H](C)CC[C@@H]([C@H]1C)[C@@]24OO3 [ALPHA-ARTEETHER]
AUC (Rattus norvegicus [1]): 601.1 ng·h/mL
Vd [2]: 3.6 L/kg
half-life [3]: 22 h
Tmax [4]: 0.5 h
MRT [5]: 2 h
MRT [6]: 4.3 h
CL (Rattus norvegicus [7]): 600 mL/min/kg
CL (Rhesus monkey [8]): 61.7 mL/min/kg
half-life [9]: 1.8 h
Cmax [10]: 52.3 ng/mL
Cmax [11]: 184 ng/mL
AUC (Rattus norvegicus [12]): 1247.1 ng·h/mL
Tmax [13]: 5 min
AUC (Rattus norvegicus [14]): 73.8 ng·h/mL
AUC/dose (Rhesus monkey [15]): 628.7 ng·h/mL
Vd (Rattus norvegicus [16]): 244.3 L/kg
MRT [17]: 1.8 h
CL (Rhesus monkey [18]): 26.7 mL/min/kg
AUC/dose (Rattus norvegicus [19]): 237.5 ng·h/mL
half-life [20]: 11.9 h
AUC (Rattus norvegicus [21]): 50.9 ng·h/mL
Vd [22]: 12 L/kg
Vd (Rattus norvegicus [23]): 176.5 L/kg
Cmax [24]: 60.7 ng/mL
half-life [25]: 1.7 h
Vd [26]: 4.1 L/kg
Vd (Rattus norvegicus [27]): 76.8 L/kg
MRT [28]: 14.4 h
Cmax [29]: 37.6 ng/mL
Tmax [30]: 5 min
Tmax [31]: 0.222 h
CL (Rattus norvegicus [32]): 68.3 mL/min/kg
half-life [33]: 0.55 h
AUC/dose (Rattus norvegicus [34]): 9.7 ng·h/mL
Cmax [35]: 103 ng/mL
Vd (Rattus norvegicus [36]): 129.3 L/kg
Vd (Rattus norvegicus [37]): 253.3 L/kg
CL (Rattus norvegicus [38]): 1708 mL/min/kg
Cmax [39]: 93.3 ng/mL
CL (Rattus norvegicus [40]): 40 mL/min/kg
AUC (Rattus norvegicus [41]): 1058.5 ng·h/mL
AUC/dose (Rattus norvegicus [42]): 12.4 ng·h/mL
